The nature of series [1]: Body temperature lowering in mice. Type of series: in vivo. The settings on record: intraperitoneal. An excerpt: At time “0” baseline readings were made. […] The thermistor probe was inserted 2 cm into the rectum for the measurement of body temperature.
The next series has as its system 6-keto-prostaglandin F1α. Description: Plasma prostaglandin levels after injection. Type of series: in vivo. The settings on record: mice, 30 min after injection; NT69 2 mg/kg, NT79 20 mg/kg intraperitoneally; compared to saline; surrogate marker for hypotension. Here is the method: Blood samples from 3 mice were pooled for each condition.
Therefore, in preliminary studies, levels of 6-keto-prostaglandin F1α immunoreactivity were measured after injection of saline, NT69, or NT79 into mice (FIG. 8).

For another series, the target named is T1, hNTS1 (Homo sapiens, UniProt P30989).
T1 construct: expressed in transfected cells; host or cells: CHO-K1
T1 sequence (P30989 whole entry): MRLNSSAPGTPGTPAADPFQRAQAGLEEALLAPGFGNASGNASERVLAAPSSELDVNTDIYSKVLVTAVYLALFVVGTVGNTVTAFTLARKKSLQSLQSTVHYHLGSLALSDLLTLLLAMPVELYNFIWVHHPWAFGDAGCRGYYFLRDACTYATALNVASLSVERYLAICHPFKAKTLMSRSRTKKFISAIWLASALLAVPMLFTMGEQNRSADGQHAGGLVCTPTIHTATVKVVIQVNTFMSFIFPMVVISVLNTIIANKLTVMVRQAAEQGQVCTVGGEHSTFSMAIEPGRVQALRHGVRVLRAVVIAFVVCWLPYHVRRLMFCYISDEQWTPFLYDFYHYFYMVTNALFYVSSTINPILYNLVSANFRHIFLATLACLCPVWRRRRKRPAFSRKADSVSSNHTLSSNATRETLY
Description: Radioligand competition binding with [3H]NT, membranes of CHO-K1 cells expressing hNTS1. For orientation: Displacement assays read how much labelled ligand stays bound in the presence of the test substance.

The target of another series is T2, hNTS2 (Homo sapiens, UniProt O95665).
T2 construct: expressed in transfected cells; host or cells: CHO-K1
T2 sequence (O95665 whole entry): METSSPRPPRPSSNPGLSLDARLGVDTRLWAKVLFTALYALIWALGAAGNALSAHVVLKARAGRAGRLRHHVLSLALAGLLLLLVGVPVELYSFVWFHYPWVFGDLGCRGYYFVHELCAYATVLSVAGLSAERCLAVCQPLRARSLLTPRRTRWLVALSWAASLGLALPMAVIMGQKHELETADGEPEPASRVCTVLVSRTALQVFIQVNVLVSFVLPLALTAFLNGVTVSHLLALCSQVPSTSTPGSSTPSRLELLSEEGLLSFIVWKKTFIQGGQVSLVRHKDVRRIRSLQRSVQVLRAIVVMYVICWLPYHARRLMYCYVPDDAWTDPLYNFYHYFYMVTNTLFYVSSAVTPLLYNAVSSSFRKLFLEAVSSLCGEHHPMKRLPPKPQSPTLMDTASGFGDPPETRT
Description: Radioligand competition binding with [3H]NT, membranes of CHO-K1 cells expressing hNTS2.

Series [2] in a line: Degradation of peptides in plasma in vitro (stability to plasma peptidases). Type of series: in vitro ADME. The settings on record: peptide incubated with human (FIG. 4) or rat plasma; read-out: half-lives in plasma. As for the experimental part: All peptides that were stable (half-lives >100 h), such as NT66, NT67, NT69, NT72, and NT73, have either a blocked amino group (N-Methyl-Arg) or a D-amino in the 8 or 9 position (Table 4).

Series [3] can be described thus: Acetic acid-induced writhing test. The settings on record: rats, 20 mg/kg intraperitoneally, FIG. 7. Type of series: in vivo. Here is the method: The writhing test was used to measure changes in the nociceptive threshold to a chemical stimulus. The rats were administered 20 mg/kg of NT79 intraperitoneally. The rats were also injected with 0.5 ml of a 2% (v/v) aqueous solution of acetic acid and placed individually in clear plastic containers for observation.
Behavioral Measure: The number of writhes was counted during a 60 min observation period. A writhe was defined as stretching of the hind limbs accompanied by a contraction of abdominal muscles. Analgesic compounds will result in lower number of writhes.
(In general: Writhing tests count abdominal constrictions after an irritant is injected.)

A further series is described as follows: Tail flick test. Type of series: in vivo. The note with it: rats, 20 mg/kg intraperitoneally, FIG. 6. As for the experimental part: The tail flick test also measures changes in nociceptive threshold to thermal stimulus. The rats were administered 20 mg/kg of NT79 intraperitoneally. The rat was placed in a restrainer. Water was heated to 52° C. (52-54° C.). The rat's tail was immersed in the heated water. The latency to flick the tail was recorded. A 10 sec cutoff period was used to prevent tissue damage. Antinociception was expressed as a percentage of the Maximal Possible Effect (MPE) % MPE=100×(test latency−baseline latency)/(cutoff time {10 s}−baseline latency). Analgesic compounds will result in higher % MPE.
On the technique in general: Hot-plate and tail-flick tests time the reaction to a heat stimulus.

Where two headings read alike, the source gives them in different places. Where a SMILES comes first, the peptide text is derived from it. [ ]: non-standard residue; d: D form. Ala(indol-4-yl) = N[C@@H](Cc1cccc2[nH]ccc12)C(=O)O; d1Nal = N[C@H](Cc1cccc2ccccc12)C(=O)O; NMeR = CN[C@@H](CCCNC(=N)N)C(=O)O; Tle = CC(C)(C)[C@H](N)C(=O)O

`CN[C@@H](CCCNC(=N)N)C(=O)N[C@@H](CCCCN)C(=O)N1CCC[C@H]1C(=O)N[C@@H](Cc1cccc2[nH]ccc12)C(=O)N[C@H](C(=O)N[C@@H](CC(C)C)C(=O)O)C(C)(C)C` [NT69L, [N-methyl-Arg^8,L-Lys^9,L-neo-Trp^11,tert-Leu^12]NT(8-13)] (H-[NMeR]KP[Ala(indol-4-yl)][Tle]L-OH; C-terminus assumed): the “change in body temperature (decrease)” value in series [1] (FIG. 5) was “about 10 °C”. In the series on 6-keto-prostaglandin F1α, the “plasma levels of prostaglandin (6-keto-prostaglandin F1α immunoreactivity)” value was “markedly elevated”. For the same compound, at hNTS1 (Table 2, hNTS1 over hNTS2), the “hNTS1 Selectivity” value came out at 0.7. In addition, the Kd (commonly the constant that tells how readily two partners part at equilibrium) stood at 3.1 ± 0.4 nM at hNTS1 (read-out: hNTS1 Geometric Mean ∀ SEM (equilibrium dissociation constant Kd)) and 2.1 ± 0.2 nM on hNTS2 (Table 2, read-out: hNTS2 Geometric Mean ∀ SEM (equilibrium dissociation constant Kd)). Moreover, the “hNTS2 Selectivity” value on hNTS2 (Table 2, hNTS2 over hNTS1) is on record as 1.5; at hNTS2 (Table 4) it was 1.5. For the same compound, the half-life in series [2] was > 100 h.

With `CN[C@@H](CCCNC(=N)N)C(=O)N[C@@H](CCCNC(=N)N)C(=O)N1CCC[C@H]1C(=O)N[C@H](Cc1cccc2ccccc12)C(=O)N[C@H](C(=O)N[C@@H](CC(C)C)C(=O)O)C(C)(C)C` [NT79, [N-methyl-Arg^8,D-3,1-Nal^11,tert-Leu^12]NT(8-13)] (H-[NMeR]RP[d1Nal][Tle]L-OH; C-terminus assumed), the “effect on body temperature” value in series [1] (10 times the dosage of that for NT69, FIG. 5) is “minimal effects”. Also, the “plasma levels of prostaglandin (6-keto-prostaglandin F1α immunoreactivity)” value in the series on 6-keto-prostaglandin F1α is reported as “no effect”. For the same compound, the Kd at hNTS1 was 1800 nM; on hNTS1 (Kd at hNTS1), ~1800 nM; on hNTS2, 22 nM. Besides, the “antinociceptive effect in writhing pain model” value in series [3] is on record as “robust antinociceptive effect”. Further, in “Tail flick test”, the “antinociceptive effect in tail flick assay” value is “demonstrated antinociceptive effects”. The “hNTS2 Selectivity” value at hNTS2 (Table 2, hNTS2 over hNTS1) is on record as 82; on hNTS2 (Table 4), 82. The “selectivity for hNTS2” value on hNTS2 (text) turned out to be 82 fold.

The values are drawn from patent publication US20110263507A1 (priority 2007, published 2011).
